Values of other authors in patent publication US20250295639A1, “METHODS FOR TREATING HEART DISEASES” (Cytokinetics, Incorporated, priority 2024, published 2025).

System: patients with oHCM
Conditions: cited from earlier work

CC(C)n1c(=O)cc(N[C@@H](C)c2ccccc2)[nH]c1=O [mavacamten]
benefit (pVO2, exercise duration, peak METs) in patients receiving beta blockers (EXPLORER-HCM): attenuation of benefit | peak oxygen uptake (pVO2) and other CPET parameters (patients with oHCM): has shown efficacy
